Measurements from PubChem BioAssay AID1919004 (Molecular Pharmacology Branch, DTP, NCI, 2023).
Values belong to the molecule of their own block, whether it stands above or below them.

Tested on: 883617-216-R-J1-PDC complex spheroids, growth, % test/control
Test: Anticancer human tumor 883617-216-R-J1-PDC patient-derived bladder carcinoma cell line growth inhibition [AhR]
Conditions: for IC50: curve of first compound; for viability, T/C: stronger effect = lower value
Summary of the method: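 Complex tumor spheroids co-cultured with HUVEC and human MSC stroma; AhR antagonists tested in combination with standard-of-care and investigational agents. Top concentration at or near clinical Cmax (else 10 microM), half-log dilutions; growth expressed as percent test/control.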

[1] = second compound 0.1 µM, first compound 0.0316 µM
[2] = second compound 0.1 µM, first compound 0.1 µM
[3] = second compound 0.316 µM, first compound 0.0316 µM
[4] = second compound 0.316 µM, first compound 0.1 µM
[5] = second compound 1 µM, first compound 0.0316 µM
[6] = second compound 1 µM, first compound 0.1 µM
[7] = second compound 3.16 µM, first compound 0.0316 µM
[8] = second compound 3.16 µM, first compound 0.1 µM
[9] = second compound 10 µM, first compound 0.0316 µM
[10] = second compound 10 µM, first compound 0.1 µM
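Note: exposure lasted 7 days after dosing on day 3 of spheroid growth.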

IC50 (second compound 0.1 µM): > 0.1 µM
IC50 (second compound 0.316 µM): > 0.1 µM
IC50 (second compound 1 µM): > 0.1 µM
IC50 (second compound 3.16 µM): > 0.1 µM
IC50 (second compound 10 µM): > 0.1 µM
SMILES: CC[C@@]1(O)C(=O)OCc2c1cc1n(c2=O)Cc2cc3c(CN(C)C)c(O)ccc3nc2-1 + CC(CO)NC(=O)c1cc(-c2ccc(Cl)cc2)nn(-c2cnn(C)c2)c1=O
viability, T/C (second compound 0.1 µM, first compound 0.000316 µM): 66.5%
viability, T/C (second compound 0.1 µM, first compound 0.001 µM): 93.5%
viability, T/C (second compound 0.1 µM, first compound 0.00316 µM): 102%
viability, T/C (second compound 0.1 µM, first compound 0.01 µM): 52.4%
viability, T/C [1]: 82.2%
viability, T/C [2]: 78.4%
viability, T/C (second compound 0.316 µM, first compound 0.000316 µM): 87.9%
viability, T/C (second compound 0.316 µM, first compound 0.001 µM): 100%
viability, T/C (second compound 0.316 µM, first compound 0.00316 µM): 103%
viability, T/C (second compound 0.316 µM, first compound 0.01 µM): 104%
viability, T/C [3]: 117%
viability, T/C [4]: 118%
viability, T/C (second compound 1 µM, first compound 0.000316 µM): 81.3%
viability, T/C (second compound 1 µM, first compound 0.001 µM): 78%
viability, T/C (second compound 1 µM, first compound 0.00316 µM): 107%
viability, T/C (second compound 1 µM, first compound 0.01 µM): 58.3%
viability, T/C [5]: 62%
viability, T/C [6]: 97%
viability, T/C (second compound 3.16 µM, first compound 0.000316 µM): 73.7%
viability, T/C (second compound 3.16 µM, first compound 0.001 µM): 104%
viability, T/C (second compound 3.16 µM, first compound 0.00316 µM): 63.6%
viability, T/C (second compound 3.16 µM, first compound 0.01 µM): 81.9%
viability, T/C [7]: 95.5%
viability, T/C [8]: 70.5%
viability, T/C (second compound 10 µM, first compound 0.000316 µM): 88.1%
viability, T/C (second compound 10 µM, first compound 0.001 µM): 95%
viability, T/C (second compound 10 µM, first compound 0.00316 µM): 80.5%
viability, T/C (second compound 10 µM, first compound 0.01 µM): 66.4%
viability, T/C [9]: 113%
viability, T/C [10]: 112%

IC50 (second compound 0.1 µM): > 10 µM
IC50 (second compound 0.316 µM): > 10 µM
IC50 (second compound 1 µM): > 10 µM
IC50 (second compound 3.16 µM): > 10 µM
IC50 (second compound 10 µM): > 10 µM
SMILES: CC1(C)CCC(CN2CCN(c3ccc(C(=O)NS(=O)(=O)c4ccc(NCC5CCOCC5)c([N+](=O)[O-])c4)c(Oc4cnc5[nH]ccc5c4)c3)CC2)=C(c2ccc(Cl)cc2)C1 + CC(CO)NC(=O)c1cc(-c2ccc(Cl)cc2)nn(-c2cnn(C)c2)c1=O
viability, T/C [1]: 77%
viability, T/C [2]: 90.8%
viability, T/C (second compound 0.1 µM, first compound 0.316 µM): 136%
viability, T/C (second compound 0.1 µM, first compound 1 µM): 95.4%
viability, T/C (second compound 0.1 µM, first compound 3.16 µM): 90.3%
viability, T/C (second compound 0.1 µM, first compound 10 µM): 59.4%
viability, T/C [3]: 83.2%
viability, T/C [4]: 93.9%
viability, T/C (second compound 0.316 µM, first compound 0.316 µM): 102%
viability, T/C (second compound 0.316 µM, first compound 1 µM): 88.2%
viability, T/C (second compound 0.316 µM, first compound 3.16 µM): 96.9%
viability, T/C (second compound 0.316 µM, first compound 10 µM): 68.5%
viability, T/C [5]: 90.6%
viability, T/C [6]: 114%
viability, T/C (second compound 1 µM, first compound 0.316 µM): 152%
viability, T/C (second compound 1 µM, first compound 1 µM): 71.4%
viability, T/C (second compound 1 µM, first compound 3.16 µM): 82.4%
viability, T/C (second compound 1 µM, first compound 10 µM): 78.2%
viability, T/C [7]: 79.5%
viability, T/C [8]: 132%
viability, T/C (second compound 3.16 µM, first compound 0.316 µM): 97.1%
viability, T/C (second compound 3.16 µM, first compound 1 µM): 115%
viability, T/C (second compound 3.16 µM, first compound 3.16 µM): 83.4%
viability, T/C (second compound 3.16 µM, first compound 10 µM): 68.7%
viability, T/C [9]: 91.9%
viability, T/C [10]: 143%
viability, T/C (second compound 10 µM, first compound 0.316 µM): 171%
viability, T/C (second compound 10 µM, first compound 1 µM): 83.9%
viability, T/C (second compound 10 µM, first compound 3.16 µM): 122%
viability, T/C (second compound 10 µM, first compound 10 µM): 103%
